Here are results for 14 molecules from patent US20250368650A1, “5-(4-FLUOROPHENYL)-2,3-DIHYDRO-1H-IMIDAZO[1,2-A]IMIDAZOLE DERIVATIVES AS ALK INHIBITORS FOR THE TREATMENT OF FIBROSIS” (CHIESI FARMACEUTICI S.P.A., priority 2022, published 2025).

For orientation: Ki means the dissociation constant of the complex between target and ligand, obtained from inhibition or displacement.

The structures appear in SMILES notation. Structures can show the parent of a compound that is named as a salt.

The experiment deals with human ALK5 (Homo sapiens (Human), UniProt P36897). The experiment can be described thus: ADP-GLO Kinases assay, ALK5 enzymatic activity. The settings on record: purified recombinant human ALK5 2.6 nM, TGFβ1 peptide 94.5 μM, ATP 0.83 μM, 120 min, 25° C.; pIC50 converted to pKi using the Cheng-Prusoff equation. It is filed as biochemical. The method, then: The enzymatic activity of compounds of the present invention was monitored measuring the formation of ADP using the ADP-GLO Kinases assay. Following the incubation of the purified enzyme, a substrate and ATP, the produced ADP was converted into ATP, which in turn was converted into light by Ultra-Glo Luciferase. The luminescent signal positively correlated with ADP amount and kinase activity. Briefly, the kinase reaction was performed by incubating 2.6 nM of the purified, commercially available human ALK5 (recombinant TGF β1 N-term GST-tagged, 80-end), a final concentration of TGFβ1 peptide 94.5 μM (Promega, T36-58) and ultra-pure ATP (Promega V915B). The ATP concentration was set at the Km value (concentration of substrate which permits the enzyme to achieve half maximal velocity (Vmax)) of ALK5 (0.5 μM). Compound and ALK5 kinase were mixed and incubated for 15 min. Reactions were initiated by addition of ATP at a final concentration in the assay of 0.83 μM. After an incubation of 120 min, the reaction was stopped, and ADP production detected with ADP-Glo kit according to manufacturer's indications. All reaction and incubation steps were performed at 25° C. and the assays were performed in 384-well format and validated using a selection of reference compounds tested in 11-point concentration-response curve.
human ALK5, sequence (P36897 80-503 limits assumed): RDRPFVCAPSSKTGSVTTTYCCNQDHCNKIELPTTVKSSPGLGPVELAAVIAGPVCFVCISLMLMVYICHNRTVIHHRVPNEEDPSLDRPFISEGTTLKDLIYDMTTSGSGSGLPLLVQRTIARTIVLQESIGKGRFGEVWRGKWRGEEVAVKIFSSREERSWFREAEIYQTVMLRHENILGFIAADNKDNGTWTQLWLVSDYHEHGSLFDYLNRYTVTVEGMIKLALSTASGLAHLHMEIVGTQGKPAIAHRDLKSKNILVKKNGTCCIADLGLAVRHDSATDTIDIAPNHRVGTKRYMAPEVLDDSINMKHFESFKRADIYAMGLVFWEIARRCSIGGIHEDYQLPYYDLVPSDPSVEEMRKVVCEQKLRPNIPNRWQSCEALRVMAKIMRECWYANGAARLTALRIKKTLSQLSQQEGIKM
Results were expressed as pIC50 (negative logarithm of IC50) and subsequently converted to pKi (negative logarithm of […]) using the Cheng-Prusoff equation. The higher the value of pKi, the greater the inhibition of ALK5 activity.
In the case of `Cc1cccc(-c2nc3n(c2-c2ccc(F)c(NC(=O)CCN4CCN(CC(F)(F)F)CC4)c2)CCN3)n1` [Example 4, N-(2-fluoro-5-(6-(6-methylpyridin-2-yl)-2,3-dihydro-1H-imidazo[1,2-a]imidazol-5-yl)phenyl)-3-(4-(2,2,2-trifluoroethyl)piperazin-1-yl)propanamide], the Ki was 1.26 to 7.94 nM.

On to `Cc1cccc(-c2nc3n(c2-c2ccc(F)c(NCC4CCN(C)CC4)c2)CCN3)n1` [Example 14, 2-Fluoro-N-((1-methylpiperidin-4-yl)methyl)-5-(6-(6-methylpyridin-2-yl)-2,3-dihydro-1H-imidazo[1,2-a]imidazol-5-yl)aniline], for which the Ki was 1.26 to 7.94 nM.

`Cc1cccc(-c2nc3n(c2-c2ccc(F)c(NC(=O)CCCN4CCN(C)CC4)c2)CCN3)n1` [Example 7, N-(2-fluoro-5-(6-(6-methylpyridin-2-yl)-2,3-dihydro-1H-imidazo[1,2-a]imidazol-5-yl)phenyl)-4-(4-methylpiperazin-1-yl)butanamide]: the Ki is 1.26 to 7.94 nM.

For the molecule `O=C(CCN1CCCCC1)Nc1cc(-c2c(-c3cc(Cl)ccc3F)nc3n2CCN3)ccc1F` [Example 10, N-(5-(6-(5-chloro-2-fluorophenyl)-2,3-dihydro-1H-imidazo[1,2-a]imidazol-5-yl)-2-fluorophenyl)-3-(piperidin-1-yl)propanamide], the Ki was at most 1 nM.

As for `Cc1cccc(-c2nc3n(c2-c2ccc(F)c(NC(=O)CN4CCN(C)CC4)c2)CCN3)n1` [Example 6, N-(2-fluoro-5-(6-(6-methylpyridin-2-yl)-2,3-dihydro-1H-imidazo[1,2-a]imidazol-5-yl)phenyl)-2-(4-methylpiperazin-1-yl)acetamide], the Ki is 10 to 31.6 nM.

For `Cc1cccc(-c2nc3n(c2-c2ccc(F)c(NC(=O)CCN4CCCCC4)c2)CCN3)n1` [Example 2, N-(2-fluoro-5-(6-(6-methylpyridin-2-yl)-2,3-dihydro-1H-imidazo[1,2-a]imidazol-5-yl)phenyl)-3-(piperidin-1-yl)propanamide], the “ALK5 pKi” value is at least 9.0.

In the case of `Cc1cccc(-c2nc3n(c2-c2ccc(F)c(NC(=O)CCC[N+]4(C)CCCCC4)c2)CCN3)n1` [Example 12, 1-(4-((2-Fluoro-5-(6-(6-methylpyridin-2-yl)-2,3-dihydro-1H-imidazo[1,2-a]imidazol-5-yl)phenyl)amino)-4-oxobutyl)-1-methylpiperidin-1-ium chloride hydrochloride], the Ki is 1.26 to 7.94 nM.

Take `Cc1cccc(-c2nc3n(c2-c2ccc(F)c(NC(=O)CCN(C)C)c2)CCN3)n1` [Example 9, 3-(Dimethylamino)-N-(2-fluoro-5-(6-(6-methylpyridin-2-yl)-2,3-dihydro-1H-imidazo[1,2-a]imidazol-5-yl)phenyl)propanamide]: the Ki is at most 1 nM.

With `Cc1cccc(-c2nc3n(c2-c2ccc(F)c(NC4CCN(C(C)C)CC4)c2)CCN3)n1` [Example 13, N-(2-fluoro-5-(6-(6-methylpyridin-2-yl)-2,3-dihydro-1H-imidazo[1,2-a]imidazol-5-yl)phenyl)-1-isopropylpiperidin-4-amine], the Ki was 10 to 31.6 nM.

For `CN1CCN(CCC(=O)Nc2cc(-c3c(-c4cc(Cl)ccc4F)nc4n3CCN4)ccc2F)CC1` [Example 8, N-(5-(6-(5-chloro-2-fluorophenyl)-2,3-dihydro-1H-imidazo[1,2-a]imidazol-5-yl)-2-fluorophenyl)-3-(4-methylpiperazin-1-yl)propanamide], the Ki is 1.26 to 7.94 nM.

As for `Cc1cccc(-c2nc3n(c2-c2ccc(F)c(NC(=O)CCN4CCN(C)CC4)c2)CCN3)n1` [Example 1, N-(2-fluoro-5-(6-(6-methylpyridin-2-yl)-2,3-dihydro-1H-imidazo[1,2-a]imidazol-5-yl)phenyl)-3-(4-methylpiperazin-1-yl)propanamide], the Ki is 1.26 to 7.94 nM.

For the molecule `Cc1cccc(-c2nc3n(c2-c2ccc(F)c(NC(=O)CCN4CCN(CCO)CC4)c2)CCN3)n1` [Example 3, N-(2-fluoro-5-(6-(6-methylpyridin-2-yl)-2,3-dihydro-1H-imidazo[1,2-a]imidazol-5-yl)phenyl)-3-(4-(2-hydroxyethyl)piperazin-1-yl)propanamide], the Ki is 1.26 to 7.94 nM.

Consider `Cc1cccc(-c2nc3n(c2-c2ccc(F)c(NC(=O)CN(C)C)c2)CCN3)n1` [Example 5, 2-(Dimethylamino)-N-(2-fluoro-5-(6-(6-methylpyridin-2-yl)-2,3-dihydro-1H-imidazo[1,2-a]imidazol-5-yl)phenyl)acetamide], for which the Ki was 10 to 31.6 nM.

On to `Cc1cccc(-c2nc3n(c2-c2ccc(F)c(NC(=O)CCCN4CCCCC4)c2)CCN3)n1` [Example 11, N-(2-fluoro-5-(6-(6-methylpyridin-2-yl)-2,3-dihydro-1H-imidazo[1,2-a]imidazol-5-yl)phenyl)-4-(piperidin-1-yl)butanamide], for which the Ki is 1.26 to 7.94 nM.
